The data set in a line: collision cross section in nitrogen (drift tube, single-field); higher = larger gas-phase ion size.
Where [1] appears, read: ion type: [M+H], ion source: APCI, ion mode: Positive.
The mark [2] stands for this setting: ion type: [M+H], ion source: ESI, ion mode: Positive.
[3] abbreviates: ion type: [M+Na], ion source: ESI, ion mode: Positive.
[4] abbreviates: ion type: [M-H], ion source: ESI, ion mode: Negative.

Structures are written as SMILES.
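Note: chemical standards at 10 µM analysed by drift tube IMS-QTOF MS in about 3.95 torr nitrogen, mean of duplicate injections differing ≤1%, mass error below 10 ppm.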

On to `CC(=O)C(=NNc1ccc(-c2ccc(NN=C(C(C)=O)C(=O)Nc3ccc(C)cc3C)c(Cl)c2)cc1Cl)C(=O)Nc1ccc(C)cc1C` [C.I. Pigment Yellow 13], for which the “collision cross section in nitrogen” value under setting [1] amounted to 238.9 Å² and the “collision cross section in nitrogen” value (ion type: [M+], ion source: APCI, ion mode: Positive) worked out at 238.3 Å².
As for `Cc1ccc(N=Nc2c(O)ccc3ccccc23)c(C)c1` [C.I. Solvent Orange 7], the “collision cross section in nitrogen” value under setting [1] is given as 163.6 Å² and the “collision cross section in nitrogen” value under setting [2] stood at 166.8 Å².
Regarding `CCN(CC)c1ccc2c(c1)Oc1cc(N(CC)CC)ccc1C21OC(=O)c2ccccc21` [C.I. Solvent Red 49], the “collision cross section in nitrogen” value is, setting by setting: under setting [1], 217.9 Å²; under setting [2], 218.5 Å²; under setting [3], 230.2 Å².
Take `O=C1OC2(c3ccccc31)c1ccc(O)c(Br)c1Oc1c2ccc(O)c1Br` [C.I. Solvent Red 72]: the “collision cross section in nitrogen” value by setting is: under setting [1], 186.2 Å²; under setting [2], 185 Å²; under setting [3], 205.5 Å²; under setting [4], 190.5 Å².
As for `COc1ccc(OC)c(N=Nc2c(O)ccc3ccccc23)c1` [C.I. Solvent Red 80], the “collision cross section in nitrogen” value is, setting by setting: under setting [1], 171.6 Å²; under setting [2], 171.6 Å²; under setting [4], 177.5 Å².
Take `O=C1OC2(c3ccccc31)c1cc(I)c(O)c(I)c1Oc1c2cc(I)c(O)c1I` [C.I. Solvent Red 140]: the “collision cross section in nitrogen” value under setting [1] worked out at 211.8 Å², the “collision cross section in nitrogen” value under setting [2] worked out at 211.3 Å² and the “collision cross section in nitrogen” value under setting [4] amounted to 218.2 Å².
Take `Nc1ccc(N=Nc2ccccc2)cc1` [C.I. Solvent Yellow 1]: the “collision cross section in nitrogen” value reads like this: under setting [1], 146.1 Å²; under setting [2], 146.9 Å²; under setting [4], 145.4 Å².
In the case of `Oc1ccc2ccccc2c1N=Nc1ccccc1` [C.I. Solvent Yellow 14], the “collision cross section in nitrogen” value was 156.9 Å² under setting [1] and 160.1 Å² under setting [4].
Regarding `CCN(CC)c1ccc(N=Nc2ccccc2)cc1` [C.I. Solvent Yellow 56], the “collision cross section in nitrogen” value under setting [1] was 165.9 Å² and the “collision cross section in nitrogen” value under setting [2] is reported as 165.9 Å².
Consider `COc1ccc2sc(C(=O)Nc3nnn[nH]3)c(OC(C)C)c2c1` [CI-959], for which the “collision cross section in nitrogen” value runs as follows: under setting [3], 190.1 Å²; under setting [4], 178.6 Å².
In the case of `Cc1cc2c3c(c1)C(c1ccccc1)=N[C@@H](NC(=O)c1ccncc1)C(=O)N3CC2` [CI-1018], the “collision cross section in nitrogen” value reads like this: under setting [1], 201.9 Å²; under setting [2], 200.9 Å²; under setting [3], 210.1 Å²; under setting [4], 195 Å².
In the case of `Cc1cc(SC2=C(O)C[C@@](CCc3ccc(N)cc3)(C(C)C)OC2=O)c(C(C)(C)C)cc1CO` [CI-1029], the “collision cross section in nitrogen” value under setting [3] was determined as 210.5 Å² and the “collision cross section in nitrogen” value under setting [4] worked out at 214.2 Å².
Take `Clc1ccc(-c2nc3sccn3c2/C=N/OCc2ccc(Cl)c(Cl)c2)cc1` [CITCO]: the “collision cross section in nitrogen” value turned out to be 200.6 Å² under setting [1], 200.2 Å² under setting [2] and 199 Å² under setting [4].
As to `O=C1NS(=O)(=O)c2ccccc21` [Calcium saccharin hydrate], under setting [4], the “collision cross section in nitrogen” value is given as 130.5 Å².
In the case of `CCOc1nc2cccc(C(=O)OC(C)OC(=O)OC3CCCCC3)c2n1Cc1ccc(-c2ccccc2-c2nnn[nH]2)cc1` (stereo unspecified) [Candesartan cilexetil], the “collision cross section in nitrogen” value turned out to be 241.9 Å² under setting [1], 242.2 Å² under setting [2], 252.1 Å² under setting [3] and 244 Å² under setting [4].
Taken in the same sequence, the figures for `COCCOC[C@H](CC1(C(=O)N[C@H]2CC[C@@H](C(=O)O)CC2)CCCC1)C(=O)Oc1ccc2c(c1)CCC2` [Candoxatril] were 224.2 Å², 224.4 Å², 222.5 Å² and 226.4 Å².
Regarding `COc1cc(CNC(=O)CCCC/C=C/C(C)C)ccc1O` [Capsaicin], the “collision cross section in nitrogen” value is listed as 182 Å² under setting [2], 173 Å² under setting [3] and 177.8 Å² under setting [4].
Turning to `CC(=O)c1ccc2c(c1)[C@H](NC(=O)c1ccc(F)cc1)[C@@H](O)C(C)(C)O2` [Carabersat], the “collision cross section in nitrogen” value was determined as 184.1 Å² under setting [1], 183.9 Å² under setting [2], 194.4 Å² under setting [3] and 186 Å² under setting [4].

The values are drawn from the supplement of paper PMC12317010.
